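Each compound was tested at five concentrations against cells in 96-well plates for 48 hours. TGI is the concentration that stops growth completely.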 Some results are limits rather than exact numbers.

Test systems include KM12 colon; HCC-2998 colon; CCRF-CEM leukemia; A498 renal; SK-MEL-28 melanoma; COLO 205 colon; LOX IMVI melanoma; SNB-19 CNS; OVCAR-3 ovarian; HCT-15 colon; IGROV1 ovarian; NCI-H460 lung; MOLT-4 leukemia; NCI-H23 lung; M14 melanoma; U251 CNS; NCI-H522 lung; HT29 colon; DU-145 prostate.
Holding throughout (assay): NCI-60 cell line screen, 48 h

As to `C=C1C(=O)OC2C[C@H](C)C3CC(=O)C(C)=C3CC12` (stereo partly specified), the TGI in the assay on KM12 colon was determined as 33.3 µM; in the assay on HCC-2998 colon, 29.2 µM; with CCRF-CEM leukemia, 15.7 µM; in the assay with A498 renal, 43.7 µM; in the assay with SK-MEL-28 melanoma, 18.7 µM; with COLO 205 colon, 26.5 µM. Further, the TGI with LOX IMVI melanoma is 30.4 µM; in the assay on SNB-19 CNS it was over 100 µM; with OVCAR-3 ovarian it was 26.2 µM; in the assay on HCT-15 colon, 25.9 µM; with IGROV1 ovarian, 31.4 µM; in the assay with NCI-H460 lung, 51.6 µM. Also, the TGI with MOLT-4 leukemia was 23.3 µM; in the assay on NCI-H23 lung, 28.7 µM; with M14 melanoma, 27.4 µM; in the assay with U251 CNS it was 18.1 µM; in the assay on NCI-H522 lung, 3.66 µM; in the assay on HT29 colon it was 31 µM.
For the compound `O=C(O)Cn1nnc2c(=O)[nH][nH]c(=O)c21`, the TGI in the assay on KM12 colon, with HCC-2998 colon, with CCRF-CEM leukemia, in the assay on SK-MEL-28 melanoma, in the assay with COLO 205 colon and in the assay on LOX IMVI melanoma was over 100 µM each time. For the same compound, the TGI is over 100 µM in the assay with SNB-19 CNS; over 100 µM with OVCAR-3 ovarian; over 100 µM in the assay on HCT-15 colon; over 100 µM in the assay on NCI-H460 lung; over 10 µM in the assay with MOLT-4 leukemia; over 100 µM in the assay with NCI-H23 lung. In addition, the TGI with DU-145 prostate, in the assay with M14 melanoma, in the assay with U251 CNS and with HT29 colon was over 100 µM in each case.
For `Cc1cccc2nc3n(c12)C(=O)c1ccccc1-3`, the TGI in the assay on KM12 colon, in the assay with HCC-2998 colon, with CCRF-CEM leukemia, with SK-MEL-28 melanoma, in the assay on COLO 205 colon and in the assay on SNB-19 CNS was over 100 µM each time. Besides, the TGI with OVCAR-3 ovarian, with HCT-15 colon, in the assay on IGROV1 ovarian, in the assay with NCI-H460 lung, in the assay on MOLT-4 leukemia and with NCI-H23 lung was over 100 µM throughout. The TGI in the assay with DU-145 prostate, in the assay on U251 CNS, in the assay on NCI-H522 lung and with HT29 colon was over 100 µM in each case.
In the case of `CC1(C)N(OC2CCCCO2)C(c2ccccc2)C(c2ccccc2)=[N+]1[O-]` (stereo unspecified), the TGI in the assay with KM12 colon, with HCC-2998 colon, with CCRF-CEM leukemia, in the assay with A498 renal, with SK-MEL-28 melanoma and in the assay on COLO 205 colon was over 100 µM in each case. Further, the TGI with LOX IMVI melanoma, in the assay on SNB-19 CNS, in the assay on OVCAR-3 ovarian, in the assay with HCT-15 colon, in the assay on IGROV1 ovarian and in the assay with NCI-H460 lung was over 100 µM in each case. For the same compound, the TGI with MOLT-4 leukemia, with NCI-H23 lung, in the assay on M14 melanoma, in the assay with U251 CNS and in the assay with HT29 colon was over 100 µM each time.
On to `CC1=C2C(=O)C3[C@@H](CCC4=CC(=O)CC[C@@]43C)C2CC[C@]12O[C@@H]1C[C@H](C)CN[C@H]1[C@H]2C` (stereo partly specified), for which the TGI in the assay on KM12 colon was over 100 µM; in the assay on HCC-2998 colon it was over 100 µM; with CCRF-CEM leukemia, 40.1 µM; in the assay on A498 renal, over 100 µM; in the assay with SK-MEL-28 melanoma, over 100 µM; in the assay with COLO 205 colon it was over 100 µM. Also, the TGI in the assay with LOX IMVI melanoma, in the assay with SNB-19 CNS, in the assay with OVCAR-3 ovarian, in the assay on HCT-15 colon, in the assay on IGROV1 ovarian and with NCI-H460 lung was over 100 µM each time. In addition, the TGI in the assay on MOLT-4 leukemia is 41.4 µM; in the assay with NCI-H23 lung it was over 100 µM; in the assay on M14 melanoma, over 100 µM; in the assay with U251 CNS, 51.5 µM; with NCI-H522 lung it was 37.1 µM; in the assay with HT29 colon, over 100 µM.
For the compound `NCCCCC(N)C(=O)N1CCN(c2nc(N3CCCC3)c3nc(Cl)c(NCc4ccccc4)nc3n2)CC1` (stereo unspecified), the TGI with KM12 colon stood at 47.2 µM; in the assay with HCC-2998 colon it was 34.7 µM; in the assay with CCRF-CEM leukemia, 37.7 µM; with SK-MEL-28 melanoma it was 40.5 µM; in the assay with COLO 205 colon it was 33.1 µM; in the assay on LOX IMVI melanoma, 35.9 µM. The TGI worked out at 33.2 µM in the assay with SNB-19 CNS; 36.9 µM in the assay with OVCAR-3 ovarian; 35.2 µM in the assay on HCT-15 colon; 33.9 µM with IGROV1 ovarian; 34.4 µM in the assay with NCI-H460 lung; 50.6 µM with MOLT-4 leukemia. The TGI was determined as 37.9 µM in the assay on NCI-H23 lung; 33.5 µM in the assay on DU-145 prostate; 33.9 µM with M14 melanoma; 36.5 µM in the assay with U251 CNS; 42.1 µM with NCI-H522 lung; 38 µM in the assay on HT29 colon.
As for `Cc1ccc(-c2c(C#N)c(-c3ccc([N+](=O)[O-])cc3)c(C#N)c(=O)n2NS(=O)(=O)c2ccc(C)cc2)cc1`, the TGI is over 100 µM in the assay on KM12 colon; over 100 µM in the assay with HCC-2998 colon; 73.2 µM in the assay on CCRF-CEM leukemia; over 100 µM in the assay with A498 renal; over 100 µM in the assay on SK-MEL-28 melanoma; over 100 µM with COLO 205 colon. Besides, the TGI in the assay on LOX IMVI melanoma, with SNB-19 CNS, with OVCAR-3 ovarian, in the assay on HCT-15 colon, in the assay on IGROV1 ovarian and in the assay with NCI-H460 lung was over 100 µM throughout. Also, the TGI in the assay on MOLT-4 leukemia was 50.1 µM; in the assay with M14 melanoma, over 100 µM; with U251 CNS, over 100 µM; with NCI-H522 lung it was over 100 µM; in the assay with HT29 colon, over 100 µM.
For `Cc1ccc(S(=O)(=O)c2c(N)c3nccn3c3nc4ccccc4nc23)cc1`, the TGI in the assay on KM12 colon, with HCC-2998 colon, in the assay on CCRF-CEM leukemia, in the assay on SK-MEL-28 melanoma, in the assay on COLO 205 colon and in the assay with LOX IMVI melanoma was over 100 µM throughout. Also, the TGI in the assay on SNB-19 CNS, with OVCAR-3 ovarian, in the assay on HCT-15 colon, in the assay on IGROV1 ovarian, in the assay on NCI-H460 lung and in the assay with MOLT-4 leukemia was over 100 µM throughout. The TGI with NCI-H23 lung, with M14 melanoma, in the assay on U251 CNS and in the assay with NCI-H522 lung was over 100 µM each time.

The record behind these values is PubChem BioAssay (NCI).
